As usually defined, the IC50 is the concentration needed to halve the response being measured. Low values mean higher potency, high ones lower potency.

For the assay, the system named is apolipoprotein B. The assay is described as follows: Apolipoprotein B (apo B) inhibition test in cultured human liver cells (Hepg2-cells). It is filed as cell-based. The following applies: concentration of the drug needed to reduce apoB secretion to 50% of the control, overnight at 37° C. As to the method:
Cultured human liver cells (Hepg2-cells), which synthesize and secrete low-density lipoproteins, were incubated overnight at 37° C. in a liquid medium containing radioactively labelled leucine. Thus radioactively labelled leucine was incorporated into the apolipoprotein B. The liquid medium was decanted and the apolipoprotein B was isolated by means of a double immunoprecipitation, i.e. first an apolipoprotein B-specific antibody (antibody1) was added to the liquid medium and subsequently a second antibody (antibody2) was added which binds specifically to the apoB-antibody1 -complex. The thus formed apoB-antibody1 -antibody2 complex precipitated and was isolated by centrifuge. Quantification of the amount of apolipoprotein B synthesized during the night resulted from measuring the radioactivity of the isolated complex. To measure the inhibiting activity of the test compound, that test compound was added to the liquid medium at different concentrations and the concentration of apolipoprotein B synthesized in the presence of a test compound (concentration apoB(after)) was compared to the concentration of apolipoprotein B which was synthesized in the absence of the test compound (concentration apoB(control)). For each experiment the inhibition of apolipoprotein-B formation was expressed as
% inhibition=100×(1-concentration of apoB(after)/concentration
When more experiments were carried out for the same concentration, the median value of the inhibition calculated for these experiments was calculated. IC50 -values (concentration of the drug needed to reduce apoB secretion to 50% of the control) were also computed.
Consider `CC(C)n1cnn(-c2ccc(N3CCN(c4ccc(OC[C@@H]5CO[C@@](CSc6nncn6C)(c6ccc(Cl)cc6)O5)cc4)CC3)cc2)c1=O` (relative stereo) [Compound 1], for which the concentration for half-maximal inhibition (IC50) turned out to be 0.092 µM. Turning to `CCC(C)n1cnn(-c2ccc(N3CCN(c4ccc(OC[C@@H]5CO[C@@](CSc6nncn6C)(c6ccc(Cl)cc6)O5)cc4)CC3)cc2)c1=O` (relative stereo) [Compound 2], half-maximal inhibition (IC50) was put at 0.047 µM. The figure for `CC(C)Cn1cnn(-c2ccc(N3CCN(c4ccc(OC[C@@H]5CO[C@@](CSc6nncn6C)(c6ccc(Cl)cc6)O5)cc4)CC3)cc2)c1=O` (relative stereo) [Compound 3] is 0.091 µM. In turn, `CC(C)n1cnn(-c2ccc(N3CCN(c4ccc(OC[C@@H]5CO[C@@](CSc6nncn6C)(c6ccc(F)cc6)O5)cc4)CC3)cc2)c1=O` (relative stereo) [Compound 4] showed a concentration for half-maximal inhibition (IC50) of 0.26 µM. The figure for `CC(C)Cn1cnn(-c2ccc(N3CCN(c4ccc(OC[C@@H]5CO[C@@](CSc6nncn6C)(c6ccc(F)cc6)O5)cc4)CC3)cc2)c1=O` (relative stereo) [Compound 5] is 0.2 µM; for `Cn1cnnc1SC[C@@]1(c2ccc(Cl)cc2)OC[C@@H](COc2ccc(N3CCN(c4ccc(-n5ncn(C6CCCC6)c5=O)cc4)CC3)cc2)O1` (relative stereo) [Compound 6] it is 0.12 µM; for `CCC(CC)n1cnn(-c2ccc(N3CCN(c4ccc(OC[C@@H]5CO[C@@](CSc6nncn6C)(c6ccc(Cl)cc6)O5)cc4)CC3)cc2)c1=O` (relative stereo) [Compound 7] it is 0.079 µM.

`CCCn1cnn(-c2ccc(N3CCN(c4ccc(OC[C@@H]5CO[C@@](CSc6nncn6C)(c6ccc(Cl)cc6)O5)cc4)CC3)cc2)c1=O` (relative stereo) [Compound 8] displayed an IC50 of 0.13 µM. In the case of `CCC(C)n1cnn(-c2ccc(N3CCN(c4ccc(OC[C@@H]5CO[C@@](CSc6nncn6C)(c6ccc(F)cc6)O5)cc4)CC3)cc2)c1=O` (relative stereo) [Compound 9], the midpoint of inhibition, the IC50, lay at 0.11 µM. The IC50 values of the last two compounds are within 1.5-fold of each other. The same measure for `CCC(CC)n1cnn(-c2ccc(N3CCN(c4ccc(OC[C@@H]5CO[C@@](CSc6nncn6C)(c6ccc(F)cc6)O5)cc4)CC3)cc2)c1=O` (relative stereo) [Compound 12]: 0.19 µM; for `Cn1cnnc1SC[C@@]1(c2ccc(F)cc2F)OC[C@@H](COc2ccc(N3CCN(c4ccc(-n5ncn(C6CCCC6)c5=O)cc4)CC3)cc2)O1` (relative stereo) [Compound 13]: 0.51 µM; for `CCCCn1cnn(-c2ccc(N3CCN(c4ccc(OC[C@@H]5CO[C@@](CSc6nncn6C)(c6ccc(Cl)cc6)O5)cc4)CC3)cc2)c1=O` (relative stereo) [Compound 15]: 0.048 µM. The same measure for `CCCCCn1cnn(-c2ccc(N3CCN(c4ccc(OC[C@@H]5CO[C@@](CSc6nncn6C)(c6ccc(Cl)cc6)O5)cc4)CC3)cc2)c1=O` (relative stereo) [Compound 18]: 0.041 µM; for `CCC(C)n1ncn(-c2ccc(N3CCN(c4ccc(OC[C@@H]5CO[C@@](CSc6nncn6C)(c6ccc(Cl)cc6)O5)cc4)CC3)cc2)c1=O` (relative stereo) [Compound 22, (±)-cis-4-[4-[4-[4-[[2-(4-chlorophenyl)-2-[[(4-methyl-4H-1,2,4-triazol-3-yl)thio]methyl]-1,3-dioxolan-4-yl]methoxy]phenyl]-1-piperazinyl]-phenyl]-2,4-dihydro-2-(1-methylpropyl)-3H-1,2,4-triazol-3-one]: 0.071 µM; for `CC(C)Cn1ncn(-c2ccc(N3CCN(c4ccc(OC[C@@H]5CO[C@@](CSc6nncn6C)(c6ccc(Cl)cc6)O5)cc4)CC3)cc2)c1=O` (relative stereo) [Compound 23]: 0.14 µM. `Cn1cnnc1SC[C@@]1(c2ccc(Cl)cc2)OC[C@@H](COc2ccc(N3CCN(c4ccc(-n5cnn(C6CCCC6)c5=O)cc4)CC3)cc2)O1` (relative stereo) [Compound 24] returned an IC50 of 0.058 µM.

As to `CCC(C)n1ncn(-c2ccc(N3CCN(c4ccc(OC[C@@H]5CO[C@@](CSc6nncn6C)(c6ccc(F)cc6)O5)cc4)CC3)cc2)c1=O` (relative stereo) [Compound 28], the IC50 was 0.097 µM. The compound `CCCCCn1ncn(-c2ccc(N3CCN(c4ccc(OC[C@@H]5CO[C@@](CSc6nncn6C)(c6ccc(Cl)cc6)O5)cc4)CC3)cc2)c1=O` (relative stereo) [Compound 32] displayed an IC50 of 0.18 µM. The same measure for `CC(C)n1ncn(-c2ccc(N3CCN(c4ccc(OC[C@@H]5CO[C@@](CSc6nncn6C)(c6ccc(Cl)cc6)O5)cc4)CC3)cc2)c1=O` (relative stereo) [Compound 33]: 0.091 µM; for `Cn1cnnc1SC[C@@]1(c2ccc(F)cc2)OC[C@@H](COc2ccc(N3CCN(c4ccc(-n5cnn(C6CCCC6)c5=O)cc4)CC3)cc2)O1` (relative stereo) [Compound 35]: 0.077 µM.

Regarding `Cn1cnnc1SC[C@@]1(c2ccc(F)cc2F)OC[C@@H](COc2ccc(N3CCN(c4ccc(-n5cnn(C6CCCC6)c5=O)cc4)CC3)cc2)O1` (relative stereo) [Compound 37], the midpoint of inhibition, the IC50, lay at 0.23 µM. `CCC(CC)n1ncn(-c2ccc(N3CCN(c4ccc(OC[C@@H]5CO[C@@](CSc6nncn6C)(c6ccc(F)cc6)O5)cc4)CC3)cc2)c1=O` (relative stereo) [Compound 43] gave an IC50 of 0.11 µM. The figure for `CCC(CC)n1ncn(-c2ccc(N3CCN(c4ccc(OC[C@@H]5CO[C@@](CSc6nncn6C)(c6ccc(Cl)cc6)O5)cc4)CC3)cc2)c1=O` (relative stereo) [Compound 44] is 0.051 µM; for `CCC(C)n1ncn(-c2ccc(N3CCN(c4ccc(OC[C@@H]5CO[C@@](CSc6nnc(C(F)(F)F)[nH]6)(c6ccc(Cl)cc6)O5)cc4)CC3)cc2)c1=O` (relative stereo) [Compound 49] it is 0.85 µM; for `CCC(C)n1ncn(-c2ccc(N3CCN(c4ccc(OC[C@@H]5CO[C@@](CSc6nnc(C(F)(F)F)n6C)(c6ccc(Cl)cc6)O5)cc4)CC3)cc2)c1=O` (relative stereo) [Compound 50] it is 0.26 µM.

Compound `CCCCn1cnnc1SC[C@@]1(c2ccc(Cl)cc2)OC[C@@H](COc2ccc(N3CCN(c4ccc(-n5cnn(C(C)CC)c5=O)cc4)CC3)cc2)O1` (relative stereo) [Compound 51] had an IC50 of 0.047 µM. With `CCC(C)n1ncn(-c2ccc(N3CCN(c4ccc(OC[C@H]5CO[C@](CSc6nncn6C(C)C)(c6ccc(Cl)cc6)O5)cc4)CC3)cc2)c1=O` (relative stereo) [Compound 52], the midpoint of inhibition, the IC50, lay at 0.25 µM. The figure for `CCC(C)n1ncn(-c2ccc(N3CCN(c4ccc(OC[C@H]5CO[C@](CSc6nncn6CC)(c6ccc(Cl)cc6)O5)cc4)CC3)cc2)c1=O` (relative stereo) [Compound 53] is 0.084 µM; for `CCC(C)n1ncn(-c2ccc(N3CCN(c4ccc(OC[C@H]5CO[C@](CSc6nncn6CC(C)C)(c6ccc(Cl)cc6)O5)cc4)CC3)cc2)c1=O` (relative stereo) [Compound 54] it is 0.079 µM; for `CCCn1cnnc1SC[C@]1(c2ccc(Cl)cc2)OC[C@H](COc2ccc(N3CCN(c4ccc(-n5cnn(C(C)CC)c5=O)cc4)CC3)cc2)O1` (relative stereo) [Compound 55] it is 0.078 µM.

`CCC(C)n1ncn(-c2ccc(N3CCN(c4ccc(OC[C@H]5CO[C@](CSc6nnc(C)n6C)(c6ccc(Cl)cc6)O5)cc4)CC3)cc2)c1=O` (relative stereo) [Compound 56]: inhibition was half-maximal at 0.23 µM (IC50).

The values above are taken from patent US5929075A, “Apolipoprotein-B synthesis inhibitors” (Janssen Pharmaceutica, N.V., priority 1994, dated 1999).
